Patent publication US8530489B2 (Vertex Pharmaceuticals Incorporated, priority 2006, dated 2013)

Molecular target: PLK1 (Homo sapiens, UniProt P53350)
Assay: PLK1 Inhibition Assay I (radioactive-phosphate incorporation)
Format: biochemical
Conditions: Ki(app); PLK1 Inhibition Assay I or II (table does not say which)
Summary of the method: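 Ki(app) values came from non-linear regression of initial rates after background subtraction, with phosphopeptide measured by phosphocellulose filter binding and scintillation counting. PLK1 at 2 nM was preincubated with compound (typically from 10 μM, 2-fold dilutions) for 10 min, then run 240 min at 25° C with 350 μM [γ-33P]ATP and 450 μM peptide substrate in HEPES pH 7.5 buffer.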

Sequence of PLK1 (P53350 whole entry): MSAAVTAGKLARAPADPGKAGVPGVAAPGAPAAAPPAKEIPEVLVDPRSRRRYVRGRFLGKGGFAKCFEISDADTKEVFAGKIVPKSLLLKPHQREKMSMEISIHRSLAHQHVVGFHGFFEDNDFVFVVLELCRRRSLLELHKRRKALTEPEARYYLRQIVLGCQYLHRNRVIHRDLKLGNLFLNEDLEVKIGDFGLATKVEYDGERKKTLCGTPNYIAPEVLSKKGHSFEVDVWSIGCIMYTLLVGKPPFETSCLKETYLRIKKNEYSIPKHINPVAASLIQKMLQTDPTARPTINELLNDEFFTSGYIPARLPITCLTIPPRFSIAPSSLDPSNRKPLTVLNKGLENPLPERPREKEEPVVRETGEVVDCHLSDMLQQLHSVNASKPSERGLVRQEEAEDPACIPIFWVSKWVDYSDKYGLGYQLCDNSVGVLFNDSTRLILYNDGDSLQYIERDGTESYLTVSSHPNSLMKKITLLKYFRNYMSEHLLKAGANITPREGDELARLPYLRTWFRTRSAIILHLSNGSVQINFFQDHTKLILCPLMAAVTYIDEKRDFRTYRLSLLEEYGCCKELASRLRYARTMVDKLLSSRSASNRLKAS

Ki [nM] | Structure (SMILES)
3 to 40 | CC(O)CNc1ncc(C#N)c(-c2c[nH]c3ncc(C(F)(F)F)cc23)n1 (centres unmarked) [Compound I-91, 2-(2-hydroxypropylamino)-4-(5-(trifluoromethyl)-1H-pyrrolo[2,3-b]pyridin-3-yl)pyrimidine-5-carbonitrile]
> 40 | N#Cc1cnc(NCc2ccc(-n3cccn3)cc2)nc1-c1c[nH]c2ncc(C(F)(F)F)cc12 [Compound I-92, 2-(4-(1H-pyrazol-1-yl)benzylamino)-4-(5-(trifluoromethyl)-1H-pyrrolo[2,3-b]pyridin-3-yl)pyrimidine-5-carbonitrile]
3 to 40 | CCCNc1ncc(C#N)c(-c2c[nH]c3ncc(C(F)(F)F)cc23)n1 [Compound I-93, 2-(propylamino)-4-(5-(trifluoromethyl)-1H-pyrrolo[2,3-b]pyridin-3-yl)pyrimidine-5-carbonitrile]
3 to 40 | COc1ccc(CNc2ncc(C#N)c(-c3c[nH]c4ncc(C(F)(F)F)cc34)n2)cc1Cl [Compound I-94, 2-(3-chloro-4-methoxybenzylamino)-4-(5-(trifluoromethyl)-1H-pyrrolo[2,3-b]pyridin-3-yl)pyrimidine-5-carbonitrile]
3 to 40 | N#Cc1cnc(NC2CCC(O)CC2)nc1-c1c[nH]c2ncc(C(F)(F)F)cc12 (centres unmarked) [Compound I-95, 2-(4-hydroxycyclohexylamino)-4-(5-(trifluoromethyl)-1H-pyrrolo[2,3-b]pyridin-3-yl)pyrimidine-5-carbonitrile]
3 to 40 | CCC(O)CNc1ncc(C#N)c(-c2c[nH]c3ncc(C(F)(F)F)cc23)n1 (centres unmarked) [Compound I-96, 2-(2-hydroxybutylamino)-4-(5-(trifluoromethyl)-1H-pyrrolo[2,3-b]pyridin-3-yl)pyrimidine-5-carbonitrile]
3 to 40 | C[C@@H](O)CNc1ncc(C#N)c(-c2c[nH]c3ncc(C(F)(F)F)cc23)n1 [Compound I-97, 2-((R)-2-hydroxypropylamino)-4-(5-(trifluoromethyl)-1H-pyrrolo[2,3-b]pyridin-3-yl)pyrimidine-5-carbonitrile]
< 3 | C[C@@H](Nc1ncc(C#N)c(-c2c[nH]c3ncc(C(F)(F)F)cc23)n1)c1ccc(O)cc1 [Compound I-99, 2-((R)-1-(4-hydroxyphenyl)ethylamino)-4-(5-(trifluoromethyl)-1H-pyrrolo[2,3-b]pyridin-3-yl)pyrimidine-5-carbonitrile]
< 3 | CC(Nc1ncc(C#N)c(-c2c[nH]c3ncc(C(F)(F)F)cc23)n1)c1ccc(=O)[nH]c1 (centres unmarked) [Compound I-100, 2-(1-(6-oxo-1,6-dihydropyridin-3-yl)ethylamino)-4-(5-(trifluoromethyl)-1H-pyrrolo[2,3-b]pyridin-3-yl)pyrimidine-5-carbonitrile]
< 3 | CC(=O)N1CCC(C(C)Nc2ncc(C#N)c(-c3c[nH]c4ncc(C(F)(F)F)cc34)n2)CC1 (centres unmarked) [Compound I-101, 2-(1-(1-acetylpiperidin-4-yl)ethylamino)-4-(5-(trifluoromethyl)-1H-pyrrolo[2,3-b]pyridin-3-yl)pyrimidine-5-carbonitrile]
> 40 | N#Cc1cnc(NC(CO)C2CCOC2)nc1-c1c[nH]c2ncc(C(F)(F)F)cc12 (centres unmarked) [Compound I-104, 2-(2-hydroxy-1-(tetrahydrofuran-3-yl)ethylamino)-4-(5-(trifluoromethyl)-1H-pyrrolo[2,3-b]pyridin-3-yl)pyrimidine-5-carbonitrile]
3 to 40 | N#Cc1cnc(NC(CO)C2CCOCC2)nc1-c1c[nH]c2ncc(C(F)(F)F)cc12 (centres unmarked) [Compound I-105, 2-(2-hydroxy-1-(tetrahydro-2H-pyran-4-yl)ethylamino)-4-(5-(trifluoromethyl)-1H-pyrrolo[2,3-b]pyridin-3-yl)pyrimidine-5-carbonitrile]
3 to 40 | N#Cc1cnc(NC(CCO)C2CC2)nc1-c1c[nH]c2ncc(C(F)(F)F)cc12 (centres unmarked) [Compound I-106, 2-(1-cyclopropyl-3-hydroxypropylamino)-4-(5-(trifluoromethyl)-1H-pyrrolo[2,3-b]pyridin-3-yl)pyrimidine-5-carbonitrile]
3 to 40 | C[C@H](CO)Nc1ncc(C#N)c(-c2c[nH]c3ncc(C(F)(F)F)cc23)n1 [Compound I-107, 2-((R)-1-hydroxypropan-2-ylamino)-4-(5-(trifluoromethyl)-1H-pyrrolo[2,3-b]pyridin-3-yl)pyrimidine-5-carbonitrile]
3 to 40 | C[C@H](O)[C@@H](CO)Nc1ncc(C#N)c(-c2c[nH]c3ncc(C(F)(F)F)cc23)n1 [Compound I-108, 2-((2R,3S)-1,3-dihydroxybutan-2-ylamino)-4-(5-(trifluoromethyl)-1H-pyrrolo[2,3-b]pyridin-3-yl)pyrimidine-5-carbonitrile]
3 to 40 | N#Cc1cnc(NCCO)nc1-c1c[nH]c2ncc(C(F)(F)F)cc12 [Compound I-109, 2-(2-hydroxyethylamino)-4-(5-(trifluoromethyl)-1H-pyrrolo[2,3-b]pyridin-3-yl)pyrimidine-5-carbonitrile]

Ki [nM] | Structure (SMILES)
3 to 40 | COCC(Nc1ncc(C#N)c(-c2c[nH]c3ncc(C(F)(F)F)cc23)n1)C(C)C (centres unmarked) [Compound I-110, 2-(1-methoxy-3-methylbutan-2-ylamino)-4-(5-(trifluoromethyl)-1H-pyrrolo[2,3-b]pyridin-3-yl)pyrimidine-5-carbonitrile]
< 3 | CC(C)(C)[C@@H](CO)Nc1ncc(C#N)c(-c2c[nH]c3ncc(C(F)(F)F)cc23)n1 [Compound I-111, 2-((S)-1-hydroxy-3,3-dimethylbutan-2-ylamino)-4-(5-(trifluoromethyl)-1H-pyrrolo[2,3-b]pyridin-3-yl)pyrimidine-5-carbonitrile]
< 3 | CCOc1ccc(C(C)Nc2ncc(C#N)c(-c3c[nH]c4ncc(C(F)(F)F)cc34)n2)cc1 (centres unmarked) [Compound I-112, 2-(1-(4-ethoxyphenyl)ethylamino)-4-(5-(trifluoromethyl)-1H-pyrrolo[2,3-b]pyridin-3-yl)pyrimidine-5-carbonitrile]
> 40 | N#Cc1cnc(NC(CO)c2cccnc2)nc1-c1c[nH]c2ncc(C(F)(F)F)cc12 (centres unmarked) [Compound I-113, 2-(2-hydroxy-1-(pyridin-3-yl)ethylamino)-4-(5-(trifluoromethyl)-1H-pyrrolo[2,3-b]pyridin-3-yl)pyrimidine-5-carbonitrile]
3 to 40 | N#Cc1cnc(NC[C@H](O)CO)nc1-c1c[nH]c2ncc(C(F)(F)F)cc12 [Compound I-114, 2-((S)-2,3-dihydroxypropylamino)-4-(5-(trifluoromethyl)-1H-pyrrolo[2,3-b]pyridin-3-yl)pyrimidine-5-carbonitrile]
3 to 40 | N#Cc1cnc(NC[C@@H](O)CO)nc1-c1c[nH]c2ncc(C(F)(F)F)cc12 [Compound I-115, 2-((R)-2,3-dihydroxypropylamino)-4-(5-(trifluoromethyl)-1H-pyrrolo[2,3-b]pyridin-3-yl)pyrimidine-5-carbonitrile]
3 to 40 | CC[C@@H](C)[C@@H](CO)Nc1ncc(C#N)c(-c2c[nH]c3ncc(C(F)(F)F)cc23)n1 [Compound I-116, 2-((2S,3R)-1-hydroxy-3-methylpentan-2-ylamino)-4-(5-(trifluoromethyl)-1H-pyrrolo[2,3-b]pyridin-3-yl)pyrimidine-5-carbonitrile]
> 40 | CN1CCC(CNc2ncc(C#N)c(-c3c[nH]c4ncc(C(F)(F)F)cc34)n2)CC1 [Compound I-117, 2-((1-methylpiperidin-4-yl)methylamino)-4-(5-(trifluoromethyl)-1H-pyrrolo[2,3-b]pyridin-3-yl)pyrimidine-5-carbonitrile]
> 40 | CCN1CCC(CNc2ncc(C#N)c(-c3c[nH]c4ncc(C(F)(F)F)cc34)n2)CC1 [Compound I-118, 2-((1-ethylpiperidin-4-yl)methylamino)-4-(5-(trifluoromethyl)-1H-pyrrolo[2,3-b]pyridin-3-yl)pyrimidine-5-carbonitrile]
3 to 40 | N#Cc1cnc(N[C@@H]2CC[C@H](CO)C2)nc1-c1c[nH]c2ncc(C(F)(F)F)cc12 [Compound I-119, 2-((1R,3S)-3-(hydroxymethyl)cyclopentylamino)-4-(5-(trifluoromethyl)-1H-pyrrolo[2,3-b]pyridin-3-yl)pyrimidine-5-carbonitrile]
3 to 40 | N#Cc1cnc(NCc2cnc3[nH]ccc3c2)nc1-c1c[nH]c2ncc(C(F)(F)F)cc12 [Compound I-120, 2-((1H-pyrrolo[2,3-b]pyridin-5-yl)methylamino)-4-(5-(trifluoromethyl)-1H-pyrrolo[2,3-b]pyridin-3-yl)pyrimidine-5-carbonitrile]
< 3 | CC(=O)Nc1ccc(C(C)Nc2ncc(C#N)c(-c3c[nH]c4ncc(C(F)(F)F)cc34)n2)cc1 (centres unmarked) [Compound I-121, N-(4-(1-(5-cyano-4-(5-(trifluoromethyl)-1H-pyrrolo[2,3-b]pyridin-3-yl)pyrimidin-2-ylamino)ethyl)phenyl)acetamide]
< 3 | CC(Nc1ncc(C#N)c(-c2c[nH]c3ncc(C(F)(F)F)cc23)n1)c1ccc(O)c(Cl)c1 (centres unmarked) [Compound I-122, 2-(1-(3-chloro-4-hydroxyphenyl)ethylamino)-4-(5-(trifluoromethyl)-1H-pyrrolo[2,3-b]pyridin-3-yl)pyrimidine-5-carbonitrile]
3 to 40 | CC(Nc1ncc(C#N)c(-c2c[nH]c3ncc(C(F)(F)F)cc23)n1)c1ccc(N2CCN(C(=O)OC(C)(C)C)CC2)cc1 (centres unmarked) [Compound I-123, tert-butyl 4-(4-(1-(5-cyano-4-(5-(trifluoromethyl)-1H-pyrrolo[2,3-b]pyridin-3-yl)pyrimidin-2-ylamino)ethyl)phenyl)piperazine-1-carboxylate]
< 3 | CC(Nc1ncc(C#N)c(-c2c[nH]c3ncc(C(F)(F)F)cc23)n1)c1ccc(N2CCOCC2)cc1 (centres unmarked) [Compound I-125, 2-(1-(4-morpholinophenyl)ethylamino)-4-(5-(trifluoromethyl)-1H-pyrrolo[2,3-b]pyridin-3-yl)pyrimidine-5-carbonitrile]
3 to 40 | CC(C)[C@H](CN1CCOCC1)Nc1ncc(C#N)c(-c2c[nH]c3ncc(C(F)(F)F)cc23)n1 [Compound I-128, 2-((R)-3-methyl-1-morpholinobutan-2-ylamino)-4-(5-(trifluoromethyl)-1H-pyrrolo[2,3-b]pyridin-3-yl)pyrimidine-5-carbonitrile]
